# Source: US20220226484A1, “THERAPEUTIC PEPTIDES” (COHBAR, INC., priority 2019, published 2022)
# Positions of bridges follow the written chain, without caps; N, C: chain ends. Non-standard residues stand in square brackets, D forms with d. Primed or numbered codes have the meaning given here. Chains are numbered I, II in the order given. No end group written: not given here. PEG12′ = not defined here
# Legend:
# Format in all cases: cell-based
# C2C12 Mouse Myoblasts = assay: Glucose utilization; conditions: metformin 1 mM
# Experimental: The effect of the peptides on glucose metabolism can be assessed using an assay of glucose utilization in cultured cultured cells such as mouse myoblasts. Peptides were initially prepared as 10 mM stock in DMSO and used at a final concentration of 10 μM (0.1% DMSO). C2C12 mouse myoblast cell line was purchased from American Type Culture Collection (Manassas, Va.). C2C12 cultures were maintained at 37° C. in a humidified atmosphere of 5% CO2/95% air with medium changes every second day. C2C12 cells were grown in DMEM (1 g/L glucose) supplemented with 10% FBS with 100 IU/ml penicillin and 100 μg/ml streptomycin. C2C12 cells were seeded at 7,000 cells per well on 96-well plates and cultured to confluence. Once the cell reached confluence the media was changed to DMEM (1 g/L glucose) supplemented with 2% HS with 100 IU/ml penicillin and 100 μg/ml streptomycin and maintained at 37° C. in a humidified atmosphere of 5% CO2/95% air. 5 days post-induction of differentiation fresh DMEM (1 g/L glucose) supplemented with 2% HS with 100 IU/ml penicillin and 100 μg/ml streptomycin was added to cultures. Cells were maintained at 37° C. in a humidified atmosphere of 5% CO2 and 95% air for 5 hours. After 5 hours test peptides at 10 μM or controls (0.5 mM or 1 mM metformin in 1% DMSO) prepared in fresh differentiation medium were added to cells and the cultures were maintained at 37° C. in a humidified atmosphere of 5% CO2/95% air for 18-22 hours. At the end of the incubation culture media was removed from the cells and the remaining glucose concentration was measured using a Glucose Assay kit (Abcam) according to the manufacturer's instructions, using a Cytation 3 plate reader at 570 nm (BioTek, Winooski, Vt.). Glucose concentrations in the medium were calculated relative to 0.1% DMSO treated control cells. The relative standard deviation of the result for the 0.1% DMSO treated control was <20%. Metformin was used as a positive control for reduction of glucose levels (increased glucose utilization glucose levels for treatment with metformin (1 mM) treatment were <20% of the 0.1% DMSO treated control value. The results are reported in Table 7.
# 3T3-L1 Mouse Adipocytes = assay: Insulin-dependent effect on free fatty acid levels in cultured mouse adipocytes; conditions: 3 hours; for Free Fatty Acid Levels, MEAN % ISO, +Insulin: peptide 10 μM + insulin 0.25 nM, percent of isoproterenol (0.1 nM)+insulin (0.25 nM); for Free Fatty Acid Levels, MEAN % ISO, −Insulin: peptide 10 μM alone, percent of isoproterenol (0.1 nM) treated control cells
# Experimental: The effect of the peptides on fatty acid metabolism was assessed in the absence and presence of insulin using an assay of free fatty acid levels in cultured cells such as mouse adipocytes. Peptides were initially prepared as 10 mM stock in DMSO and used at a final concentration of 10 μM (0.1% DMSO). […] Insulin (0.25 nM) was used as a partial inhibitor and insulin (10 nM) was used as a potent inhibitor of isoproterenol stimulated fatty acid production. Mouse 3T3-L1 cells purchased from ZenBio (Research Triangle Park, N.C.) were seeded at 3,000 cells per well on 96-well plates in Pre-Adipocyte Medium (Zen-Bio) and grown to confluence at 37° C. in a humidified atmosphere of 5% CO2/95% air. Two days after confluence, cells were placed in Adipocyte Differentiation Medium (Zen-Bio) and cultured for three additional days at 37° C. in a humidified atmosphere of 5% CO2/95% air. The culture medium was then partially replaced with Adipocyte Maintenance Medium (Zen-Bio) and the cells maintained at 37° C. in a humidified atmosphere of 5% CO2/95% air with partial medium replacement every other day. At 12 day of differentiation, 96-well cultures were transferred to Adipocyte Maintenance Medium without insulin and placed at 37° C. in a humidified atmosphere of 5% CO2/95% air for two days. Following this incubation period, the medium was removed from 14 day differentiated cultures and replaced with Assay Buffer (Zen-Bio) containing peptides (10 μM), insulin (0.25 nM or 10 nM), isoproterenol (0.1 nM) as appropriate. […] isoproterenol was added to all wells except untreated controls. Insulin at 0.1 nM and 10 nM was added to control wells. Peptides (10 μM) in the absence or presence of insulin (0.25 nM) were added to test wells. Cells in the presence of compounds were placed at 37° C. in a humidified atmosphere of 5% CO2/95% air for 3 hours. At the end of the final 3 h incubation, conditioned assay buffer was removed from each well and place in a fresh 96-well plate for quantitation of free fatty acid content. Free fatty acid concentrations in the assay buffer samples were determined using a Free Fatty Acid Assay kit (Zen-Bio) according to the manufacturer's instructions using a Cytation 3 plate reader at 540 nm (BioTek, Winooski, VD. Absorbance values were corrected for untreated background and expressed as a percent of isoproterenol (0.1 nM) treated control cells for peptides alone or isoproterenol (0.1 nM)+insulin (0.25 nM) for peptides in presence of insulin (0.25 nM). Treatment with isoproterenol […] alone was used as the free fatty acid level stimulatory control. The relative standard deviation of the isoproterenol control was <10%. […] Free fatty acid levels for insulin (10 nM) treatment were <5% of the isoproterenol control value. Free fatty acid levels for insulin (0.25 nM) treatment were 60-80% of the isoproterenol control value.
# [1] = system: WI-38 cells (human fetal lung fibroblast cells); assay: Fibroblast-to-myofibroblast transition assay, pro-collagen I alpha 1 expression; conditions: 10 μM peptide and 5 ng/ml TGF-β, 48 h, cell lysates
# Experimental: The effect of the peptides on fibrosis can be assessed in vitro using a fibroblast-to-myofibroblast transition (FMT) assay and monitoring pro-collagen I alpha 1 expression produced by cultured cells such as human fetal lung fibroblast cells. Peptides were initially prepared as 10 mM stock solutions in DMSO or 1 mM stock in H2O and were used at a final concentration of 10 μM (0-0.1% DMSO). Transforming Growth Factor beta (TGF-β) was used as a potent inducer of FMT as measured by increased pro-collagen I alpha 1 expression. Human WI-38 cell line was purchased from American Type Culture Collection (Manassas, Va.). WI-38 cells were seeded in complete medium (DMEM/high glucose (4 g/L)+10% Fetal Bovine Serum+1% penicillin/streptomycin) at 40,000 cells/well on 48-well plates and placed at 37° C. in a humidified atmosphere of 5% CO2/95% air. The next day, the medium was removed, cells were rinsed twice with HBSS, and the medium replaced with Serum Restricted Medium (DMEM/high glucose (4 g/L)+0.2% Fetal Bovine Serum+1% penicillin/streptomycin). The cultures were placed at 37° C. in a humidified atmosphere of 5% CO2/95% air overnight. Following 24 h in Serum Restricted Medium, the medium was removed, and the following was added: fresh Serum Restricted Medium alone (no TGF-β control); fresh Serum Restricted Medium containing 5 ng/ml TGF-β (TGF-β control); or fresh Serum Restricted Medium containing 10 μM peptide and 5 ng/ml TGF-β. Cells were incubated for 48 h at 37° C. in a humidified atmosphere of 5% CO2/95% air, washed twice with cold HBSS and immediately lysed. Lysis and determination of pro-collagen I alpha 1 concentrations in the cell lysates were performed using a Pro-Collagen I Alpha 1 ELISA kit (Abcam; Cambridge, Mass.) according to the manufacturer's instructions; absorbance was measured using a Cytation 3 plate reader at 450 nm (BioTek, Winooski, Vt.).
# H4IIE Rat Hepatoma Cells = assay: Insulin-dependent effect on glucose production by cultured rat liver cells; conditions: 24 hour; for Glucose Levels, MEAN % Control, +Insulin: peptide 10 μM + insulin 800 pM, percent of insulin (800 pM); for Glucose Levels, MEAN % Control, −Insulin: peptide 10 μM alone, percent of untreated control cells
# Experimental: The effect of the peptides on glucose production was assessed in the absence and presence of insulin using an assay of glucose levels in cultured cells such as rat hepatocytes. Peptides were initially prepared as 10 mM stock in DMSO and used at a final concentration of 10 μM (0.1% DMSO). Insulin (800 pM) was used as a partial inhibitor of glucose production. H4-IIE cells purchased from ATCC (Manassas, Va.) were seeded at 100,000 cells/well in standard medium (DMEM/high glucose+10% FBS+1× Glutamax+antibiotics) on 96-well plates and allowed to adhere overnight at 37° C. in a humidified atmosphere of 5% CO2/95% air. Approximately 24 h after seeding, the medium was removed, cells rinsed with glucose free DMEM, and Glucose Production Medium (glucose free DMEM+2 mM sodium pyruvate+10 mM sodium lactate) was added. The cultures were placed at 37° C. in a humidified atmosphere of 5% CO2/95% air overnight. The next morning, the medium was removed and fresh Glucose Production Medium containing compounds was added. Insulin at 800 pM was added to control wells. Peptides (10 μM) in the absence or presence of insulin (800 pM) were added to test wells. Cells in the presence of compounds were placed at 37° C. in a humidified atmosphere of 5% CO2/95% air overnight. After 24 hour incubation, conditioned medium from each well was transferred to a fresh 96-well plate for quantitation of glucose content. Quantitation of glucose levels was determined using an Amplex Red Glucose Assay kit (Abacm; Cambridge, Mass.) according to the manufacturer's instructions using a Cytation 3 plate reader at 570 nm (BioTek, Winooski, Vt.). Absorbance values were expressed as a percent of untreated control cells (maximum glucose production) for peptide alone samples or insulin (800 pM) for peptides in the presence of insulin (800 pM. Glucose levels for insulin (800 pM) treatment were ˜80-90% of the untreated control values. The results are reported in Table 15.
# [2] = system: Rat primary cortical neurons; assay: Neuroprotection against Aβ (1-42) toxicity in cultured neurons; conditions: Aβ (1-42) 20 μM + BDNF 50 ng/mL, 24 hours
# Experimental: Rat primary cortical neurons were collected and cultured by methods well known in the art (Singer et al., 1999 and Callizot et al., 2013). The cells were seeded at a density of 25,000 per well in 96-well plates precoated with poly-L-lysine and cultured at 37° C. in an air (95%)-CO2 (5%) incubator. The medium was changed every 2 days. The cortical neurons were treated after 11 days of culture. The A13(1-42) was prepared using the procedure described by Callizot et al., 2013 to ensure monomeric peptide. Compounds and the positive control, BDNF (50 ng/ml), were dissolved in culture medium and then pre-incubated with primary cortical neurons for 1 hour before addition of A13(1-42) (20 μM). After 24 hours of treatment, the cell culture supernatant was removed and the cortical neurons were fixed by a cold solution of ethanol (95%) and acetic acid (5%) for 5 min at −20° C. After permeabilization with 0.1% of saponin, cells were incubated for 2 hours with mouse monoclonal antibody anti-microtubule-associated-protein 2 (MAP-2) at a dilution of 1/400 in PBS containing 1% fetal calf serum and 0.1% of saponin to stain cell bodies and neurites.
# This antibody was detected with Alexa Fluor 488 goat anti-mouse IgG at the dilution 1/400 in PBS containing 1% FCS, 0.1% saponin, for 1 hour at room temperature. For each condition, images were obtained using ImageXpress (Molecular Devices) with 20× magnification. The total number of cells and extent of neurite network was determined using Custom Module Editor (Molecular Devices).
Molecule,Procollagen I Alpha 1 Mean (SEM) [1],"Free Fatty Acid Levels, MEAN % ISO, +Insulin (3T3-L1 Mouse Adipocytes)","Free Fatty Acid Levels, MEAN % ISO, −Insulin (3T3-L1 Mouse Adipocytes)","Glucose Levels, MEAN % Control, +Insulin (H4IIE Rat Hepatoma Cells)","Glucose Levels, MEAN % Control, −Insulin (H4IIE Rat Hepatoma Cells)",further results
"CN(C)C(=N)N=C(N)N [metformin, reference compound]",–,–,–,–,–,"glucose levels, % of the 0.1% DMSO treated control value (C2C12 Mouse Myoblasts): < 20%"
RVIRMCLNVGLLGEL(dA)G [SEQ ID NO: 27] (chain 1 RVIRMCLNVGLLGEL[dA]G; chain 2 RVIRMCLNVGLLGEL[dA]G; disulfide I:6-II:6),4120 (677) pg/mL,–,–,–,–,"Free Fatty Acid Levels, MEAN % ISO, +Insulin (3T3-L1 Mouse Adipocytes; listed as 27): 28.2%; Free Fatty Acid Levels, MEAN % ISO, −Insulin (3T3-L1 Mouse Adipocytes; listed as 27): 94.5%; Glucose Levels, MEAN % Control, +Insulin (H4IIE Rat Hepatoma Cells; listed as 27): 54.3%; Glucose Levels, MEAN % Control, −Insulin (H4IIE Rat Hepatoma Cells; listed as 27): 108%"
RVIRMCLNVGLNGEL(dA)E (RVIRMCLNVGLNGEL[dA]E) [SEQ ID NO: 20],4680 (377) pg/mL,97.5%,102%,75.1%,110%,–
{PEG12}KRVIRMCLGVGLLGDLAG ([PEG12′]KRVIRMCLGVGLLGDLAG) [SEQ ID NO: 16],3980 (569) pg/mL,33.4%,54.6%,79.8%,104%,–
"BDNF: positive control, BDNF (50 ng/ml) (protein, UniProt P23560 19-247, looked up) Neurotrophic factor BDNF …: APMKEANIRGQGGLAYPGVRTHGTLESVNGPKAGSRGLTSLADTFEHVIEELLDEDQKVRPNEENNKDADLYTSRVMLSSQVPLEPPLLFLLEEYKNYLDAANMSMRVRRHSDPARRGELSVCDSISEWVTAADKKTAVDMSGGTVTVLEKVPVSKGQLKQYFYETKCNPMGYTKEGCRGIDKRHWNSQCRTTQSYVRALTMDSKKRIGWRFIRIDTSCVCTLTIKRGR",–,–,–,–,–,Percent Protection of Neuronal Network [2]: 95%; Percent Survival of Neurons [2]: 98%
